Experimental data: patent US20180155429A1, “TREATMENT OF PD-L1 POSITIVE LUNG CANCER USING AN ANTI-PD-1 ANTIBODY” (Bristol-Myers Squibb Company, priority 2015, published 2018)

What was measured:
[1] = system: advanced non-squamous (non-SQ) NSCLC; experiment: Randomized phase III study of nivolumab versus docetaxel, efficacy (OS, PFS, ORR, DOR, also by tumor PD-L1 expression); type: in vivo, human; conditions: for Best overall response CR / Best overall response PD / Best overall response PR / Best overall response SD / Best overall response Unable to determine: Nivo N = 292, Doc N = 290; for mOS: PD-L1+ patients; for 1-year PFS rate / median OS / 1-year OS rate: all randomized pts; for 1-year OS rate: nivolumab 3 mg/kg IV Q2W, docetaxel 75 mg/m^2 IV Q3W; for Median time to response: all responders (NIVO, n = 56; DOC, n = 36); for Ongoing response: at last tumor assessment before censoring, responders
Description: (§1) 582 patients were randomized to receive either nivolumab or docetaxel. 292 were randomized to receive nivolumab, and of these, 287 actually received nivolumab. 290 were randomized to receive docetaxel, and of these, 268 actually received docetaxel. Patients were treated with nivolumab at 3 mg/kg IV Q2W until they experienced a progressive disease or unacceptable toxicity. Patients were treated with docetaxel at 75 mg/m^2 IV Q3W until progressive disease or unacceptable toxicity occurred. The primary end point of the study was overall survival (OS). The secondary endpoints of the study were overall response rate (ORR) (Per RECIST v1.1 criteria as determined by the investigator), progression free survival (PFS) (Per RECIST v1.1 criteria as determined by the investigator), efficacy by tumor PD-L1 expression, and disease-related symptom improvement rate by week 12. An overview of the trial can be seen in FIGS. 1A and 1B.
All patients had either stage IIIB or stage IV non-squamous NSCLC and 1 prior PT-DC treatment. Prior maintenance therapy with pemetrexed, bevacizumab or erlotinib was allowed (and was not considered a separate line of therapy). Prior TKI therapy was allowed for a known ALK translocation or EGFR mutation. The ECOG PS was 0-1. Patients were stratified by prior maintenance therapy and line of therapy (second-vs third-line)
In this example, ALK means anaplastic lymphoma kinase; ECOG PS means Eastern Cooperative Oncology Group performance status; EGFR means epidermal growth factor receptor; IV means intravenous; LCSS means Lung Cancer Symptom Scale; ORR means objective response rate; OS=overall survival; PFS=progression-free survival; PD=progressive disease; and TKI means tyrosine kinase inhibitor.
The PD-L1 expression was measured for the patients. The DAKO PD-L1 Assay Analytical Validation and Clinical Sample Testing is described in Table 3.

[2] = Randomized phase III study of nivolumab versus docetaxel, exposure and safety; type: in vivo, human; conditions: for Treatment-related deaths: at DBL, treated pts
Description: as §1

[3] = cited from earlier work
PD-1 = biological target: T1, PD-1 (Homo sapiens, UniProt Q15116); conditions: 15 subjects, 0.3 mg/kg to 10 mg/kg, across all doses, cited from earlier work
T1 construct: Receptor-occupancy data from 15 subjects who received 0.3 mg/kg to 10 mg/kg dosing with nivolumab indicate that PD-1 occupancy appears to be dose-independent; endogenous in cells
T1 sequence (Q15116 25-288): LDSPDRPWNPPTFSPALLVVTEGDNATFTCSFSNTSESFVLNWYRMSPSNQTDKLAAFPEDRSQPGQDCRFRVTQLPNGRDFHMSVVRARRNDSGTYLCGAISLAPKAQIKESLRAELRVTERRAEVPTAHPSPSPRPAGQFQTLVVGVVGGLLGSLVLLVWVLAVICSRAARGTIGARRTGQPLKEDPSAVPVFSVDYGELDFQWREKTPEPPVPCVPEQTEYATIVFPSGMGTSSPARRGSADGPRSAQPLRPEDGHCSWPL

[4] = all randomized pts (Nivo N = 292, Doc N = 290), RECIST v1.1, investigator

Row | Molecule | Best overall response CR [1] | Best overall response PD [1] | Best overall response PR [1] | Best overall response SD [1] | Best overall response Unable to determine [1] | mOS ([1]; 1% expression level) [months] | mOS ([1]; 5% expression level) [months] | mOS ([1]; 10% expression level) [months] | Median DOR ([1]; PD-L1 Negative (<1%)) [mos] | ORR ([1]; PD-L1 Negative (<1%)) [%] | Median DOR ([1]; PD-L1 Negative (<5%)) [mos] | ORR ([1]; PD-L1 Negative (<5%)) [%] | Median DOR ([1]; PD-L1 Negative (<10%)) [mos] | ORR ([1]; PD-L1 Negative (<10%)) [%] | Median DOR ([1]; PD-L1 Not quantifiable) [mos] | ORR ([1]; PD-L1 Not quantifiable) [%] | Median DOR ([1]; PD-L1 Positive (≥1%)) [mos] | ORR ([1]; PD-L1 Positive (≥1%)) [%] | Median DOR ([1]; PD-L1 Positive (≥5%)) [mos] | ORR ([1]; PD-L1 Positive (≥5%)) [%] | other results
1 | CC(=O)O[C@@]12CO[C@@H]1C[C@H](O)[C@@]1(C)C(=O)[C@H](O)C3=C(C)[C@@H](OC(=O)[C@H](O)[C@@H](NC(=O)OC(C)(C)C)c4ccccc4)C[C@@](O)([C@@H](OC(=O)c4ccccc4)[C@H]21)C3(C)C [docetaxel, reference compound] | (0.3) % | (29) % | (12) % | (42) % | (16) % | 9.0 | 8.1 | 8.0 | 5.6 | 15 | 5.6 | 14 | 5.6 | 14 | 6.6 | 9.1 | 5.6 | 12 | 5.6 | 13 | Median DOR ([1]; PD-L1 Positive (≥10%)): 5.6 mos; ORR ([1]; PD-L1 Positive (≥10%)): 13%; 1-year PFS rate [1]: 8.1%; median OS [1]: 9.4 months; ORR [1, 4]: 12%; 1-year OS rate [1]: 39%; Median DOR ([1]; all responders): 5.6 mos; Median time to response [1]: 2.6 mos; Ongoing response [1]: (14) %; Treatment-related deaths [2]: 0.4^9; Treatment-related select AE: Hypothyroidism ([2]; human, in vivo): 0%; Treatment-related select AE: Pneumonitis ([2]; human, in vivo): 0.4%
2 | nivolumab | (1.4) % | (44) % | (18) % | (25) % | (11) % | 17.2 | 18.2 | 19.4 | 18.3 | 9.3 | 18.3 | 10 | 18.3 | 11 | 7.3 | 13 | 16.0 | 31 | 16.0 | 36 | tolerated dose ([3]; given intravenously every 2 weeks): up to 10 mg/kg; maximum tolerated dose (MTD) ([3]; nivolumab monotherapy every two weeks, MTD not reached): > 10 mg/kg; Estimated odds ratio (95% CI) for ORR ([1]; Nivo vs Doc, P-value 0.0246): 1.7 (1.1, 2.6); Median DOR ([1]; PD-L1 Positive (≥10%)): 16.0 mos; ORR ([1]; PD-L1 Positive (≥10%)): 37%; 1-year PFS rate [1]: 19%; median OS [1]: 12.2 months; ORR [1, 4]: 19%; 1-year OS rate [1]: 51%; Median DOR ([1]; all responders): 17.2 mos; Median time to response [1]: 2.1 mos; Ongoing response [1]: (52) %; reduction in risk of death ([1]; nivolumab in comparison to docetaxel): 27%; HR (risk of death) ([1]; nivolumab in comparison to docetaxel, P=0.0015): 0.73; Treatment-related deaths [2]: 0^8; safety profile ([2]; in vivo): favorable vs docetaxel; mean plateau PD-1 occupancy (PD-1; range 59% to 81%): 72%; mean PD-1 occupancy rate (PD-1; range 70% to 97%): 85%
